Experimental findings from US10106853B2, “CUL4B as predictive biomarker for cancer treatment” (CORNELL UNIVERSITY, priority 2012, dated 2018) are described below.

In this series the test system is BT474 xenograft tumors. It is filed as in vivo, athymic Nu/J nude mice. The settings on record: without topotecan administration; tumor burden and excised tumor weight. Here is the method: FIG. 5. CUL4B inactivation sensitized BT474 xenograft tumors to topotecan. Stable TGL-BT474 cells (BT474 cells stably expressing GFP-luciferase reporter) were established by retroviral transduction and FACS sorting. The resulting TGL-BT474 cells were infected with recombinant lentiviruses expressing non-targeting shCtrl, shCUL4A or shCUL4B, followed by selection of infected cells with 4 μg/ml puromycine for one week. A) Knockdown of endogenous CUL4A and 4B were verified by immunoblotting. B, C) 1×10^7 of control, CUL4A^k/d, or CUL4B^k/d TGL-BT474 cells were injected subcutaneously in the right flank of each athymic Nu/J nude mice, treated (i.p.) with toptoecan at a dose of 5 mg/g on every 4th day, and tumor burden was measure by bioluminescent imaging. Statistical significance in tumor burden between control and CUL4A^k/d or CUL4B^k/d xenograph are assessed by a two-tailed unpaired student t-test (***: p<0.001). D) Growth rate of control, CUL4A^k/d and CUL4B^k/d BT474 cells in vitro. The same number of control, CUL4A^k/d and CUL4B^k/d BT474 cells were seeded to 96-well plates and cell proliferation was measured using the XTT Cell Proliferation Assay Kit. The data represent the mean value of fold change of cells. Bars indicate the S.E. of six independent experiments. Statistical significance in cellular rate between control cells and CUL4A^k/d or CUL4B^k/d cells are assessed by student's t-test. E-F) Growth rate of control, CUL4A^k/d and CUL4B^k/d TGL-BT474 xenograft in vivo. 1×10^7 of control, CUL4A^k/d or CUL4B^k/d TGL-BT474 cells were injected subcutaneously in the right flank of each mouse of athymic Nu/J nude mice, and tumor burden was measured by bioluminescent imaging (E). On the 22nd day, tumors were collected, and the weight of exercised tumors was measured after mice were sacrificed (F).
The effect of CUL4B knockdown on an organism's response to CPT treatment was tested in vivo by examining the sensitivity of BT474-CUL4B^k/d, BT474-CUL4A^k/d and control BT474 xenograft tumors to topotecan treatment. Topotecan, (S)-10-[(dimethylamino)methyl]-4-ethyl-4,9-dihydroxy-1H-pyrano[3′,4′:6,7]indolizino[1,2-b]quinoline-3,14(4H,12H)-dione monohydrochloride, is an FDA-approved Top1-directed chemotherapy for the treatment of ovarian, cervical and small cell lung cancer, under the trade name Hycamtin™. Nude mice bearing BT474 xenografts on dorsal skin were treated with topotecan every four (4) days for a period of 44 days. Prior to topotecan administration, the size of the xenograft tumors were identical (FIG. 5). Topotecan was then administered via intraperitoneal injection, and tumor mass was monitors by bioluminescent imaging in four day intervals. […] To rule out the possibility that the growth rate of xenografts were altered during the CUL4B inactivation process (treatment with shRNA) the tumor mass of the three xenograft groups were measured in the absence of topotecan treatment and the weight of the exercised xenograft tumors were analyzed.
Six week old Female athymic Nu/J nude mice were purchased from Jackson Labs. Mice were housed in laminar air-flow cabinets under specific pathogen-free conditions. Nude mice were inoculated with 0.36 mg 60-day-release 17-b-estradiol pellets (Innovative Research) 24 to 48 hours before implantation of BT-474 cells. 1×10^7 BT-474 cells in 50 ul DMEM medium and 300 ul diluted BD Matrigel™ Basement Membrane Matrix (BD Bioscience, Matrix: PBS is 2:1) were injected subcutaneously in the right flank of each mouse. Tumors were detected once every four days by an IVIS Imaging System (Caliper Life Sciences). When tumors were available to be detected, mice were initially treated with topotecan. Topotecan was administered intraperitoneally on every fourth day from the initiation of therapy at doses of 5 mg/g.
The IVIS Imaging System (Caliper life sciences) was used for bioluminescent image acquisition and analysis. […]

Turning to “shCUL4B: lentiviral shRNA CUL4B sequence purchased from Sigma Aldrich, reduces CUL4B expression (CCGGGCAGAATTTAAAGAGGGTAAACTCGAGTTTACCCTCTTTAAATTCTGCTTTTT)”, the “Growth rate of xenografts vs control” value is “no significant difference”.
